Assay results taken from US20240366555A1, “SELECTIVE MTORC2 INHIBITOR AND USES THEREOF” (ALIAD BIOPHARMA, priority 2021, published 2024).

Experiments:
[1] = system: Pten KO mice; test: Social-open field test in Pten KO mice; type: in vivo; settings: 5 or 10 mg/kg, FIG. 3
Procedure: As Pten KO mice, Ptenf/f_cre/cre KO mice or Ptenf/f_cre/++ Het mice (KD) were obtained by mating Pten floxed/floxed mice and CAMKII-cre mice. DMSO or athyriol was intraperitoneally injected at 5 or 10 mg/kg for 2 weeks from the age of mice of 6 weeks, and a behavioral test was performed in 7 days after administration. Pten floxed/floxed mice were used as littermates of the same age as a normal control group.
When athyriol was administered to the Pten KO mice, in order to confirm the sociability disorder was improved, a social-open field test was performed. After adapting the Pten-KO mice to the record environment for 30 minutes, they were adapted to the open filed test space made of black acrylic for 10 minutes. An unfamiliar mouse was placed in a test space in a transparent acrylic cage allowing minimal contact with the sense of smell. The movement of the test mouse was recorded for 10 minutes and analyzed with ethovision 3.1 program. Then, sociability was measured by setting 10 cm around the cylinder where the unfamiliar mouse was placed.
The social-open field test is measuring sociability as the time spent in a social interaction zone in contact with other mice in an open space, and measures the time of actually contacting also in the contact space, or sniffling toward other mice. […]

[2] = system: normal mice; test: 3 chamber test in normal mice; type: in vivo; settings: 5 mg/kg, sociability measurement-2 session, FIG. 14b
Procedure: 3-chamber test is a test to confirm sociability, social cognition, and social sexual preference, and it was tested by composing sessions 1 and 2. The experimental site was consisted of three chambers made of transparent acrylic walls with a small door and each chamber was length 50 cm×width 100 cm×height 50 cm. Through a cylindrical cage, the sense of smell and minimal contact of the test mice to the unfamiliar mouse were allowed. Prior to the test, the test mice were placed in an intermediate chamber and adapted for 5 minutes with both doors closed. The test was performed by dividing into sessions I and II. In the 3-chamber sociability measurement-1 session, an unfamiliar mouse met first was placed in a transparent box located at one end of the three rooms, and an empty transparent box of the same size was placed in the room located at the other side, and the target mouse was placed in the middle room, and then the time searching toward the counterpart within the social interaction zone was measured.
In order to verify this possibility, the efficacy of athyriol on memory ability and sociability of normal animals was investigated. […]

[3] = biological target: T1, mTORC1 (Homo sapiens, UniProt P42345); test: In vitro mTORC1 kinase assay (GST-S6K Thr389 phosphorylation, immunoblot); type: biochemical
T1 construct: mTORC1 was isolated by co-immunoprecipitation using Flag antibody; made in house; host or cells: HEK 293T transfected with Flag-Raptor
Procedure: In order to investigate the effect on mTORC1 activity of norathyriol, in vitro mTORC1 kinase assay was performed. After introducing Flag-Raptor into a human cell line 293T, mTORC1 was isolated by co-immunoprecipitation using Flag antibody. In addition, the activity of the isolated mTORC1 complex was evaluated by measuring phosphorylation of GST-S6K Thr389, which is a selective substrate of mTORC1, by immunoblot analysis. In the control group in which Flag-Raptor was not introduced, GST-S6K Thr389 phosphorylation was almost not measured. […] Therefore, it was judged that GST-S6K Thr389 phosphorylation measured in the in vitro mTORC1 kinase assay was generated by mTORC1. In order to evaluate the inhibitory effect of norathyriol on mTORC1 activity, norathyriol was pretreated for 15 minutes, and then in vitro mTORC1 kinase assay was carried out.
More specifically, the HEK 293T cells were cultured in a DMEM culture medium in which 10% heat inactivated FBS+1× Glutamax was added. 8×10^5 HEK 293T cells were seeded in a 100 mm culture dish, and then they were cultured for 1 day. After mixing 42 μl Lipofectamine, 21 μl plus reagent, and 21 μg Flag-Raptor plasmid DNA to 1 ml OPTI-MEM, it was shaken at a room temperature for 25 minutes to prepare a transfection DNA mixture. The transfection DNA mixture was slowly treated on the cells drop by drop, and after culturing for 5 hours, the culture medium was replaced with a new culture medium. […] The protein concentration of the cell lysate was determined with BCA protein assay kit (Thermo Fisher Scientific). […] Thr389 phosphorylation of GST-S6K1, which is a substrate of mTORC1, was measured by performing immunoblot analysis using phospho Thr389 p70 S6 kinase antibody (#9205S, Cell Signaling) and GST antibody (#A190-122A, Bethyl Laboratories). […]

Row | GST-S6K Thr389 phosphorylation ([3]; 20 μM, 40 μM and 80 μM, FIG. 6c) | IC50 ([3]; in vitro mTORC1 kinase assay) [µM] | SMILES | increase of direct counterpart searching time [1] [%] | increase in ratio of searching time for familiar mice to searching time for unfamiliar mice compared to vehicle control [2] [%]
1 |  |  | COc1cc(O)c2c(=O)c3cc(O)c(O)cc3oc2c1 [athyriol, 1,6,7-Trihydroxy-3-methoxy-9H-xanthen-9-on] | 6 | 11
2 | not reduced at a significant level | > 80 | O=c1c2cc(O)c(O)cc2oc2cc(O)cc(O)c12 [norathyriol, 1,3,6,7-tetrahydroxy-9H-xanthen-9-one] |  | 
